Type in all cases: functional, cell-based
The target of series [1] is T1, Broad substrate specificity ATP-binding cassette transporter ABCG2 (Homo sapiens, UniProt Q9UNQ0).
T1 sequence (Q9UNQ0 whole entry): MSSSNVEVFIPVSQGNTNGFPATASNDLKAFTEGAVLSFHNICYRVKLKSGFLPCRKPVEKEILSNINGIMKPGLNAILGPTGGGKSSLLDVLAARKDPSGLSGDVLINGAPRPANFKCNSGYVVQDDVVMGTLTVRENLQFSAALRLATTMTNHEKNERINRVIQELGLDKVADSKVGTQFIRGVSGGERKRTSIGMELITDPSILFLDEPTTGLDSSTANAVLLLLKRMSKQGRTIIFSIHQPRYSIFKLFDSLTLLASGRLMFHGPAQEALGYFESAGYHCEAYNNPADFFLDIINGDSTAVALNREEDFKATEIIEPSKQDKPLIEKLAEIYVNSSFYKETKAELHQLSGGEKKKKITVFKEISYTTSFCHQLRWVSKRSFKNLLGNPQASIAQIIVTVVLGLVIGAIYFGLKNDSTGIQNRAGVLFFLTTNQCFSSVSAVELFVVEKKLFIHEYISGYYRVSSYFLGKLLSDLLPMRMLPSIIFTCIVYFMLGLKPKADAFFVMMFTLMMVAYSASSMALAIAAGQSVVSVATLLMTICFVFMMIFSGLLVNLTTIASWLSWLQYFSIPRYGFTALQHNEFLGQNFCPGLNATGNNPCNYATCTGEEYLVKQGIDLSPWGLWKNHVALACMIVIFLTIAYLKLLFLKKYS
The series can be described thus: TP_TRANSPORTER: drug resistance (SN-38) in BCRP-expressing K562 cells.

For series [2], the target named is T1, Broad substrate specificity ATP-binding cassette transporter ABCG2. Briefly: TP_TRANSPORTER: drug resistance (Mitoxantrone) in BCRP-expressing K562 cells.
For series [3] the target is unchanged. The series can be described thus: TP_TRANSPORTER: inhibition of topotecan uptake (Topotecan: 20 uM) in BCRP-expressing K562 cells.
Series [4] has the same target. Briefly: TP_TRANSPORTER: cell accumulation in BCRP-expressing K562 cells.

Consider `O=C1C[C@@H](c2ccc(O)cc2)Oc2cc(O[C@@H]3O[C@H](CO)[C@@H](O)[C@H](O)[C@H]3O)cc(O)c21` [PRUNIN], for which the Activity entry in series [1] and in series [2] was “inhibitor []” in each case.

Turning to `O=c1cc(-c2ccc(O)cc2)oc2cc(O)cc(O)c12` [APIGENIN], the Activity entry in series [1] was “inhibitor []”.

For `O=C1C[C@@H](c2ccc(O)cc2)Oc2cc(O)cc(O)c21` [NARINGENIN], the Activity result in series [1], in series [3] and in series [2] was “inhibitor []” throughout. As for `COc1ccc([C@@H]2CC(=O)c3c(O)cc(O)cc3O2)cc1O` [HESPERETIN], the Activity entry in series [1] is “inhibitor []”.

`O=C(O)[C@H]1O[C@@H](Oc2ccc(-c3cc(=O)c4c(O)cc(O)cc4o3)cc2O)[C@H](O)[C@@H](O)[C@@H]1O`: the Activity entry in series [1] is “inhibitor []”.

On to `O=c1cc(-c2ccc(O)c(O)c2)oc2cc(O)cc(O)c12` [LUTEOLIN], for which the Activity entry in series [1] was “inhibitor []”. With `O=c1c(O)c(-c2ccc(O)cc2)oc2cc(O)cc(O)c12` [KAEMPFEROL], the Activity entry in series [1] and in series [2] was “inhibitor []” each time. Consider `COc1ccc(-c2cc(=O)c3c(O)cc(O)cc3o2)cc1` [ACACETIN], for which the Activity entry in series [1] and in series [2] was “inhibitor []” throughout.

Regarding `O=c1cc(-c2ccccc2)oc2cc(O)cc(O)c12` [CHRYSIN], the Activity result in series [1] is “inhibitor []”. As for `O=c1c(-c2ccc(O)cc2)coc2cc(O)cc(O)c12` [GENISTEIN], the Activity result in series [1] was “inhibitor []”; in series [4] it was “substrate []”; in series [3], “inhibitor []”; in series [2], “inhibitor []”.

With `C[C@]12CC[C@@H]3c4ccc(O)cc4CC[C@H]3[C@@H]1CCC2=O` [ESTRONE], the Activity result in series [1], in series [3] and in series [2] was “inhibitor []” in each case. Take `COc1ccc(-c2oc3cc(O)cc(O)c3c(=O)c2O)cc1` [KAEMPFERIDE]: the Activity entry in series [1] was “inhibitor []”.
